# Measurements from patent US6596756B1, “Treatment of fibromyalgia” (Eli Lilly and Company, priority 1999, dated 2003).
# Read-outs that look alike come from different tables or passages of the source.
# Experiments:
# [1] = tested on: formalin-induced paw-licking behavior in the rat; settings: for Early Phase (sum of time spent licking, 0 to 5 minutes) / Late Phase (sum of seconds spent licking, 15 to 40 minutes): mean ± SEM
# From the text: (Shibata, M., Ohkubo, T., Takahashi, H., and Inoki, R., “Modified formalin test: Characteristic biphasic pain response,” Pain (1989) 38: 347-352; and Tjolsen, A., Berge, O. G., Hunskaar, S., Rosland, J. H., and Hole, K., “The formalin test: an evaluation of the method,” Pain (1992) 51:5-17.) The effect of duloxetine on formalin-induced paw-licking behavior in the rat was investigated as an index of persistent nociceptive activation. In this test, the injection of formalin under the skin on the dorsal lateral surface of the hind paw of rats causes an immediate and intense increase in the spontaneous activity of C fiber afferents. This activation evokes a distinctly quantifiable behavior indicative of pain, such as licking, flinching, shaking or biting of the injected paw. The behavioral response to formalin is biphasic, with an early phase that is short lived, followed by an extended tonic response or late phase of persistent nociceptive activation. Mechanisms causing the late phase response, such as central sensitization of pain transmitting neurons, are currently believed to contribute to various types of persistent pains.
# (§1) Male Sprague-Dawley rats (200-250 g; Charles River, Portage, Mich.) were maintained at constant temperature and light (12 h light/12 h dark) for 4-7 days prior to the studies. Animals had free access to food and water at all times prior to the day of the experiment.
# The formalin test was performed in custom made Plexiglas® boxes 25×25×20 cm (length×width×height) in size. A mirror placed at the back of the box allowed the unhindered observation of the formalin injected paw. Rats were acclimatized individually in the cubicles at least 1 hour prior to the experiment. All testing was conducted between 08:00 and 14:00 hr and the testing room temperature was maintained at 21-23° C. Test compound was administered 30 or 60 minutes prior to the formalin injection. Formalin (50 μl of a 5% solution in saline) was injected subcutaneously into the dorsal lateral surface of the right hind paw with a 27 gauge needle. Observation started immediately after the formalin injection. Formalin-induced pain was quantified by recording in 5 minute intervals the number of formalin injected paw licking events and the number of seconds each licking event lasted. These recordings were made for 50 minutes after the formalin injection. After the experiment, animals were killed with an overdose of CO2. (Euthanasia protocol, Eli Lilly Animal Use and Care Committee.)
# Scoring in the formalin test was performed according to Coderre et al., 1993b and Abbott et al., 1995. (Coderre T. J., Fundytus M. E., McKenna J. E., Dalal S. and Melzack R. “The formalin test: a validation of the weighted-scores method of the behavioral pain rating,” Pain(1993b) 54: 43-50; and Abbott F. V., Franklin K. B. J. and Westbrook R. F. “The formalin test: scoring properties of the first and second phases of the pain response in rats,” Pain (1995) 60: 91-102.) The sum of time spent licking in seconds from time 0 to 5 minutes was considered the early phase while the late phase was taken as the sum of seconds spent licking from 15 to 40 minutes.
# Data are presented as means with standard errors of means (±SEM). Data were evaluated by one-way analysis of variance (ANOVA) and the appropriate contrasts analyzed by Tukey's test and Dunnett “t” test for two-sided comparisons.
# Male Sprague-Dawley rats = settings: rat; for Ataxia score 80 mins after drug, i.p. / Ataxia score, 30 mins after drug, i.p. / Ataxia Score, 60 mins after drug, p.o. / Ataxia score 110 mins after drug, p.o.: maximum score 40 seconds, mean ± SEM
# Protocol: The tendency of duloxetine to induce ataxia or neuromuscular effects at analgesic doses was investigated using the well-known rotorod test.
# as §1
# An automated accelerating rotorod (Omnitech Electronics Inc., Columbus, Ohio) connected to an IBM PC computer was utilized. For training and testing purposes, the rotorod was set up to accelerate to 17 r.p.m. in 5 seconds and maintaining that speed for 40 seconds. Rats were given 3 training trials to learn to maintain posture on the rotorod prior to the actual day of drug testing. The following day, rotorod testing was conducted both at 30 and 80 minutes for i.p. and at 60 and 110 minutes for p.o. following administration of drug or compound.
# All data were analyzed using the JMP statistical program. Data are presented as means with standard errors of means (±SEM). Data were evaluated by one-way analysis of variance (ANOVA) and the appropriate contrasts analyzed by Tukey's test and Dunnett “t” test for two-sided comparisons.
# [2] = tested on: mechanical allodynia due to the nerve ligation in rats; settings: rat; for Allodynia Response: nerve ligation, mean ± SEM, p < 0.05 vs vehicle
# Protocol: All data were analyzed using the JMP statistical program. […] Data were evaluated by one-way analysis of variance (ANOVA) and the appropriate contrasts analyzed by Tukey's test and Dunnett “t” test for two-sided comparisons.
# [3] = 3 mg/kg i.p., 30 min before formalin
# [4] = 3 mg/kg p.o., 60 min before formalin
compound,measurement,setting,value
"CNCCC(Oc1cccc2ccccc12)c1cccs1 (stereo not drawn) [duloxetine, N-methyl-3-(1-naphthalenyloxy)-3-(2-thienyl)propanamine]","Early Phase (sum of time spent licking, 0 to 5 minutes)",[1]; [3],32.78 ± 15.97 s
same,"Late Phase (sum of seconds spent licking, 15 to 40 minutes)",[1]; [3],254.00 ± 45.87 s
same,"Early Phase (sum of time spent licking, 0 to 5 minutes)",[1]; [4],21.78 ± 5.14 s
same,"Late Phase (sum of seconds spent licking, 15 to 40 minutes)",[1]; [4],393.56 ± 26.74 s
same,"Early Phase (sum of time spent licking, 0 to 5 minutes)","[1]; 10 mg/kg i.p., 30 min before formalin",17.00 ± 5.83 s
same,"Late Phase (sum of seconds spent licking, 15 to 40 minutes)","[1]; 10 mg/kg i.p., 30 min before formalin, p < 0.05 vs vehicle",163.89 ± 54.14 s
same,"Early Phase (sum of time spent licking, 0 to 5 minutes)","[1]; 10 mg/kg p.o., 60 min before formalin",20.22 ± 5.29 s
same,"Late Phase (sum of seconds spent licking, 15 to 40 minutes)","[1]; 10 mg/kg p.o., 60 min before formalin, p < 0.05 vs vehicle",255.78 ± 38.22 s
same,"Early Phase (sum of time spent licking, 0 to 5 minutes)","[1]; 15 mg/kg i.p., 30 min before formalin",29.56 ± 16.30 s
same,"Late Phase (sum of seconds spent licking, 15 to 40 minutes)","[1]; 15 mg/kg i.p., 30 min before formalin, p < 0.05 vs vehicle",80.44 ± 36.22 s
same,"Early Phase (sum of time spent licking, 0 to 5 minutes)","[1]; 20 mg/kg p.o., 60 min before formalin",12.67 ± 3.61 s
same,"Late Phase (sum of seconds spent licking, 15 to 40 minutes)","[1]; 20 mg/kg p.o., 60 min before formalin, p < 0.05 vs vehicle",161.11 ± 31.77 s
same,effect on late phase response to formalin (in words),[1]; i.p. and p.o. dosing,blocks the late phase response to formalin in a dose-dependent manner
same,"Ataxia score 80 mins after drug, i.p.",Male Sprague-Dawley rats; 3 mg/kg i.p.,33.35 ± 3.23 s
same,"Ataxia score, 30 mins after drug, i.p.",Male Sprague-Dawley rats; 3 mg/kg i.p.,34.27 ± 4.02 s
same,"Ataxia Score, 60 mins after drug, p.o.",Male Sprague-Dawley rats; 3 mg/kg p.o.,40.00 ± 0.00 s
same,"Ataxia score 110 mins after drug, p.o.",Male Sprague-Dawley rats; 3 mg/kg p.o.,40.00 ± 0.00 s
same,"Ataxia score 80 mins after drug, i.p.",Male Sprague-Dawley rats; 10 mg/kg i.p.,26.07 ± 6.24 s
same,"Ataxia score, 30 mins after drug, i.p.",Male Sprague-Dawley rats; 10 mg/kg i.p.,29.42 ± 6.71 s
same,"Ataxia Score, 60 mins after drug, p.o.",Male Sprague-Dawley rats; 10 mg/kg p.o.,39.11 ± 0.89 s
same,"Ataxia score 110 mins after drug, p.o.",Male Sprague-Dawley rats; 10 mg/kg p.o.,39.56 ± 0.44 s
same,"Ataxia Score, 60 mins after drug, p.o.",Male Sprague-Dawley rats; 20 mg/kg p.o.,40.00 ± 0.00 s
same,"Ataxia score 110 mins after drug, p.o.",Male Sprague-Dawley rats; 20 mg/kg p.o.,40.00 ± 0.00 s
same,"Ataxia score 80 mins after drug, i.p.",Male Sprague-Dawley rats; 30 mg/kg i.p.,25.52 ± 5.89 s
same,"Ataxia score, 30 mins after drug, i.p.",Male Sprague-Dawley rats; 30 mg/kg i.p.,24.75 ± 6.88 s
same,ataxia or neuromuscular effects in the rotorod test (in words),Male Sprague-Dawley rats; at doses that caused analgesia,did not show ataxia or neuromuscular effects
same,effect on allodynia following partial ligation of the sciatic nerve (in words),[2]; after acute or sub-chronic systemic administration,attenuates the allodynia
same,Allodynia Response,"[2]; 15 mg/kg i.p., 1 hour pretreatment",8.57 ± 1.72 g
same,Allodynia Response,"[2]; 20 mg/kg p.o., 1 hour pretreatment",8.53 ± 1.66 g
same,Allodynia Response,"[2]; 20 mg/kg × 4 day p.o., sub-chronic pretreatment (once a day for four consecutive days)",9.18 ± 2.95 g
